The values that follow come from PubChem BioAssay (NCI).

Assay in all cases: NCI tumour cell line growth inhibition, 48 h
In test [1] the test system is DLD-1 colon.
The subject of test [2] is DMS 114 small cell lung.
Test [3] has as its system DMS 273 small cell lung.
For test [4], the system named is KM20L2 colon.
Test [5] deals with M19-MEL melanoma.
Test [6] has as its system SNB-78 CNS.
In test [7] the test system is XF 498 CNS.
Test [8] has as its system RXF-631 renal.
Test [9] deals with MDA-N.
The test system of test [10] is P388 leukemia.
Test [11] concerns P388/ADR leukemia.

Molecules are shown by their SMILES. Values joined by “and” are separate entries in the source; they are usually repeats but may differ in a detail not shown here. Equal entries are not always repeated.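 Dose response: 5 concentrations. Exposure: 48 h. Format: 96-well plates. Endpoint: linear interpolation; highest concentration if not reached. GI50 = concentration required for 50% inhibition of growth. TGI: concentration producing complete growth inhibition.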

`Cc1ccc(Sc2cc([N+](=O)[O-])cc(Sc3ccc(C)cc3)c2Sc2ccc(C)cc2)cc1`: the TGI in [1], in test [2], in test [3], in [4], in test [5] and in [6] was above 100 µM in each case. In test [7], this molecule gave a TGI above 100 µM.

With `O=C1OC(=O)C2C1C1(c3ccccc3)OC2(c2ccccc2)c2c(Br)c(Br)c(Br)c(Br)c21` (centres undefined), the TGI in test [1], in test [2], in [3], in [4], in test [5] and in test [6] was above 100 µM each time. In [7], this molecule returned a TGI above 100 µM.

`CCCCCCCCCCCCCCCc1nc(SCC(=O)O)n[nH]1`: the TGI in [1] was 56.1 µM; in [8] it was above 100 µM; in [6], above 100 µM; in test [7], above 100 µM.

As to `CC(=O)NC1C(OCc2ccccc2)OC(COC(=O)CCCCCCCCCCNC(=O)CCNc2ccc([N+](=O)[O-])c3[nH]c4ccc(O)cc4c(=O)c23)C(O)C1OC(C)C(=O)N[C@H](C(=O)N[C@H](CCC(=O)O)C(N)=O)C(C)C` (some centres undefined), the TGI in test [1], in [2], in test [3], in test [4], in test [5] and in test [8] was above 100 µM in each case. In test [6], this molecule came in with a TGI above 100 µM.

As for `NC1=C(O)/C(=N/NS(=O)(=O)c2ccccc2)C(c2cccc(Cl)c2)O1` (centres undefined), the TGI is 31.7 µM in test [1]; 42.1 µM in [2]; above 100 µM in test [3]; above 85.6 µM in test [4]; above 57.2 µM in test [5]; 37.9 µM in test [9]. In [6], the TGI is above 100 µM.

`CN(CC(=O)O)Cc1c[nH]c2ccccc12` came in with a TGI in [9] above 100 µM.

Turning to `O=c1c2ccc(Br)cc2nc(-c2ccccc2)n1NC1OC(CO)C(O)C(O)C1O` (centres undefined), the TGI in test [2], in test [3], in test [4], in test [5], in test [6] and in test [7] was above 100 µM throughout.

`Cn1c(=O)c2nc3sc4ccccc4c(=N)n3c2n(C)c1=O`: the TGI in [1], in test [2], in test [3], in test [5], in [8] and in test [6] was above 100 µM throughout. Also, the TGI in [7] was above 100 µM.

Regarding `COc1ccc(/C=C\c2cc(OC)c(OC(C)=O)c(OC)c2)cc1`, the TGI is above 100 µM in [1]; 61.7 µM in test [2]; above 100 µM in [3]; above 100 µM in test [4]; above 100 µM in [5]; above 100 µM in [8]. For the same molecule, the TGI is 73.9 µM in [6] and above 100 µM in test [7].

Take `COc1nc(C(Cl)(Cl)Cl)c(Cl)c(OC)c1Cl`: the GI50 in [1] is 31.7 µM; in test [2], 19.7 µM; in test [4] it was 21 µM; in [5], 25.3 µM. Further, the TGI in test [1] was 79.8 µM; in test [2], 45.9 µM and 61.6 µM; in [3] it was 75.3 µM; in test [4] it was 55.7 µM and 85.2 µM; in test [5], 58.5 µM and 67 µM; in [9], 57.5 µM. The TGI in [10] worked out at 43 µM; in test [11], 85.9 µM; in test [8], 49.4 µM; in [6], 72.3 µM; in test [7], 54.5 µM.

In the case of `CC(=O)O[C@H]1CC[C@@]2(C)[C@@H](CC[C@@H]3[C@@H]2CC(=O)[C@@]2(C)[C@H]3C[C@@H]3CC(C)=CC(=O)[C@@H]32)C1`, in test [9], the TGI was above 100 µM.

Consider `COc1ccc2c(c1)[n+](=O)c(C(=O)C/C(=N\NC(=O)C[N+](C)(C)C)C(=O)Nc1cc(Cl)ccc1Cl)c(C)n2O`, for which the TGI in test [1], in [3], in [5] and in test [6] was above 100 µM each time.

On to `COc1ccccc1NC(=O)C(=O)C(C#N)CC(C)(C)C=O` (centres undefined), for which the TGI in [9] was above 100 µM.

In turn, `COc1cccc(/C=N/[N-]C(N)=O)c1[O-].[Cu+2].c1ccncc1` displayed a TGI in [4] above 100 µM.

Regarding `O=C(c1ccccc1)C(c1ccccc1)C1(O)C(=O)Nc2ccc(Br)cc21` (centres undefined), the TGI in test [1] was above 100 µM; in test [2], 50.5 µM; in test [3], above 100 µM; in [4] it was above 100 µM; in test [5], 30.6 µM; in test [8], above 100 µM. Also, the TGI in test [6] was above 100 µM.

`O=P1(NCCCl)OCCC(OO)N1CCCl` (centres undefined): the TGI in [1] is 50.5 µM; in test [2], above 100 µM; in test [3], above 100 µM; in [4], above 100 µM; in test [5] it was above 100 µM; in test [9] it was above 100 µM. In test [6], this molecule came in with a TGI of 86.7 µM.

As for `Cn1c(=O)ccc2cc(C(=O)c3ccccc3)ccc21`, the TGI in [1] is above 100 µM; in test [2], 81.1 µM; in test [3] it was above 100 µM; in test [4], above 100 µM; in [5], above 100 µM; in test [8], above 100 µM. Also, the TGI in test [7] is above 100 µM.

Molecule `Nc1nc(N)c(N=Nc2ccc([As](=O)(O)O)c(O)c2)c(N)n1` came in with a TGI in test [9] of 5.29 µM.

As to `CCn1cc(C(=O)O)c(=O)c2cc(F)c(N3CCNCC3)nc21`, the TGI in test [1], in test [2], in [3], in test [5], in [8] and in test [6] was above 100 µM in each case.

Regarding `CCOC(=O)/C(C#N)=C/c1[nH]c(C)c(C)c1C`, the TGI in test [1], in test [2], in [3], in [4], in [5] and in test [6] was above 100 µM in each case. The TGI in test [7] was above 100 µM.

For `O=C1C2Cc3ccccc3CN2C(=O)N1CCN1CCOCC1` (centres undefined), the TGI in test [1], in test [2], in [3], in [4], in test [5] and in test [8] was above 100 µM throughout.

Consider `O=C1CCC(=O)C12CCc1ccccc12`, for which the TGI in test [1], in test [2], in test [3], in test [4], in test [5] and in test [8] was above 100 µM in each case. Moreover, in test [7], the TGI is above 100 µM.

In the case of `CC1(C)OC(=O)C(c2ccsc2)C(=O)O1`, the TGI in test [1], in [2], in [3], in test [4], in test [5] and in test [8] was above 100 µM throughout. Besides, the TGI in test [6] and in test [7] was above 100 µM in each case.

In the case of `COc1ccc(/C=C/c2cnnc3ccccc23)cc1OC`, in test [9], the TGI was above 10 µM.

As to `COC(=O)C1=CCS(=O)(=O)C1`, the TGI in test [1], in test [2], in test [4], in test [5], in test [8] and in [6] was above 100 µM in each case. The molecule also yielded a TGI in test [7] above 100 µM.

Consider `OC1OC2COC(c3ccccc3)OC2C(O)C1O` (centres undefined), for which the TGI in test [1], in [2], in test [3], in test [4], in test [5] and in [6] was above 100 µM each time. In addition, the TGI in test [7] was above 100 µM.

`CC(=O)SC(C[N+](=O)[O-])c1ccccc1` (centres undefined) displayed a TGI in test [9] of 9.77 µM.

On to `N[C@@H](Cc1ccc(N(CCCl)CCCl)cc1)C(=O)O`, for which the GI50 is 24.5 µM in [1]; 13 µM in [2]; 6.97 µM in test [3]; 14 µM in [4]; 15.9 µM in [5]; 1.79 µM in [10]. Also, the GI50 in [11] was 2.59 µM; in [6], 25.6 µM; in [7] it was 20.9 µM and 22 µM. In addition, the TGI in test [1] was > 92 µM and 193 µM; in [2], 29.1 µM and 86.4 µM; in test [3] it was 33.6 µM and 68.3 µM; in test [4] it was > 31.6 µM and 193 µM; in test [5], 45.3 µM and 102 µM; in test [9], 126 µM. The TGI was 35.9 µM and 42.9 µM in [10]; 37.7 µM and 76.3 µM in test [11]; 83.7 µM and 205 µM in [6]; 49.3 µM and 66.3 µM in test [7].

For the molecule `Nc1c(-c2ccc(-c3c(N)[n+]([O-])c4ccccc4[n+]3[O-])cc2)[n+]([O-])c2ccccc2[n+]1[O-]`, the TGI in [1] was found to be 27.2 µM; in test [2], 16.3 µM; in test [3], 31.7 µM; in test [5], 36.2 µM; in test [6], 62.3 µM; in test [7] it was 23.9 µM.

Consider `Fc1cccc(C2SCc3nc4ccccc4n32)c1` (centres undefined), for which the TGI in [1], in test [2], in test [3], in test [5], in [8] and in test [6] was above 100 µM each time.

In test [9], `c1ccc2c(c1)-c1nc3ccccc3cc1C2N1CCOCC1` (centres undefined) gave a TGI above 100 µM.

Regarding `CC(NC(=O)C1(N)CCCC1)C(=O)O` (centres undefined), the TGI in [9] is above 100 µM.

`O=C(NCCOCCO)c1ccc(O)cc1`: the TGI in test [1], in test [2], in [3], in test [4], in test [5] and in test [7] was above 100 µM in each case.

Take `O=c1cc(/C=C/c2ccccc2)c2ccc(O/C(=C\c3ccccc3)c3nc4ccccc4c(=O)o3)cc2o1`: the TGI is above 100 µM in test [1]; 71.7 µM in test [2]; above 100 µM in test [3]; above 100 µM in [4]; 91 µM in [5]; above 100 µM in [8]. The TGI amounted to 70.8 µM in [6] and 70.5 µM in [7].

Take `NCCCSCC(=O)O`: the TGI in test [2], in test [3], in [4], in test [5] and in [6] was above 100 µM throughout.

With `CC(=O)Oc1cc(OC(C)=O)c(OC(C)=O)c2c1CC1C(=O)C3(CCc4ccccc43)C(=O)C1C2` (centres undefined), the TGI in test [1] was 35.2 µM; in test [2], 29.4 µM; in test [3], 34.9 µM; in [4] it was 48.3 µM; in test [5], 30.1 µM; in test [6], 58.2 µM. This molecule gave a TGI in test [7] of 27.9 µM.

`C=C1[C@@H]2CCC(C)(C)[C@H]1CCC(=O)[C@@H]2C(=O)OC`: the TGI in [2], in [3], in [4], in [5], in test [8] and in test [7] was above 100 µM in each case.

`CCN(CC)[C@@H]1c2cc3c(cc2C(c2cc(OC)c(O)c(OC)c2)C2C(=O)CO[C@@H]21)OCO3` (some centres undefined): the TGI in [1], in [2], in [3], in [4], in test [5] and in test [8] was above 100 µM in each case. For the same molecule, in test [7], the TGI was above 100 µM.

For the molecule `O=C1OC(/C=C/c2ccccc2)C(=O)C1=O` (centres undefined), the TGI in [1], in test [3], in test [4], in test [5] and in [7] was above 100 µM in each case.

Regarding `OC1/C(=C/c2ccccc2)CNC/C1=C\c1ccccc1` (centres undefined), the TGI in test [1], in test [2], in test [3], in test [4], in test [5] and in test [6] was above 100 µM each time.

Turning to `CC(=O)c1ccc(-c2ccc(C(C)=O)s2)s1`, the TGI in test [1] was above 100 µM; in [2], 2.76 µM; in [3], above 100 µM; in test [4] it was above 100 µM; in [5], above 100 µM; in test [8], above 100 µM. Further, the TGI in test [6] and in [7] was above 100 µM each time.
